{
  "source": "patent US11459324B2",
  "about": "“O-glycoprotein-2-acetamido-2-deoxy-3-D-glycopyranosidase inhibitors” (BIOGEN MA INC., priority 2018, dated 2022)",
  "data": [
    {"biological_target": "T1, Recombinant full length human OGA enzyme (Homo sapiens, UniProt O60502)", "T1 construct": "Recombinant full length human OGA enzyme was purchased from Origene; purchased Origene", "T1 sequence (O60502 1-916)": "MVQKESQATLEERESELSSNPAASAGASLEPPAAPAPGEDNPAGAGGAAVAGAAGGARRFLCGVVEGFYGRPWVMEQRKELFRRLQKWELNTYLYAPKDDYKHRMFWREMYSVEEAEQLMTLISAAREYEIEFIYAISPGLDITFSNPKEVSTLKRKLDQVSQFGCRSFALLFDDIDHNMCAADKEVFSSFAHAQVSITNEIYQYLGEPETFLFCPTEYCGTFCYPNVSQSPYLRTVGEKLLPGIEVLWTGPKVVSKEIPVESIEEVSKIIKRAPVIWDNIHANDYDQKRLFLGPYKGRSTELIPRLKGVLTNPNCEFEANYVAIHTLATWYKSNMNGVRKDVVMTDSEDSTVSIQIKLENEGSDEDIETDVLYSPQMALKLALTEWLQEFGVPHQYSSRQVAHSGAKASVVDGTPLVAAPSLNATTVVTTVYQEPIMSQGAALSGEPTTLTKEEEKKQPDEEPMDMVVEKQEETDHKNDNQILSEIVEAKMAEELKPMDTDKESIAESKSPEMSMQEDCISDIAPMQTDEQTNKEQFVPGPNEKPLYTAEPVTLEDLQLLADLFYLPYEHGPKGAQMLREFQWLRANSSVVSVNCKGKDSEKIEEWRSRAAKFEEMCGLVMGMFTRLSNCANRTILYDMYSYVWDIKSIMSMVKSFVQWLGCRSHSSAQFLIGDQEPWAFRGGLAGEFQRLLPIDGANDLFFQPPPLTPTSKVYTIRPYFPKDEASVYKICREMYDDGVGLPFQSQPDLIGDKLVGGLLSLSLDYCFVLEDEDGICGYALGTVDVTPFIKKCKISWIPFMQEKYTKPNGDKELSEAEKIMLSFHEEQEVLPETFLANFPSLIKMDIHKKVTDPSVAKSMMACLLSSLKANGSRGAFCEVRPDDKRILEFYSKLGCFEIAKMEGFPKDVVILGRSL", "experiment": "OGA Enzyme Inhibition Biochemical Assay", "conditions": "1 nM OGA, 100 μM 4-MUGlcNAc (Km), pH 6.4, 90 minutes at room temperature, 10-point dose-response from 20 μM", "in_short": "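Full-length human OGA at 1 nM with 100 μM 4-MUGlcNAc (Km) in McIlvaine buffer pH 6.4 plus 0.01% BSA, 90 min at room temperature, then glycine pH 10 quench. Fluorescence read at Ex 355/Em 460 nm. 10-point, 4-fold dose-response from 20 μM, 4-parameter variable-slope fit.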", "units": {"IC50": "nM"}, "values": [
      {"smiles": "CC(=O)Nc1nc(F)c(CN2CC[C@H](Cc3cc(C)ncc3F)C2)s1", "note": "[Example 3-28, (S)—N-(4-fluoro-5-((3-((5-fluoro-2-methylpyridin-4-yl)methyl)pyrrolidin-1-yl)methyl)thiazol-2-yl)acetamide]", "IC50": 8.3},
      {"smiles": "CC(=O)Nc1nc(F)c(CN2CC[C@H](Cc3cc(C)nc(C)n3)C2)s1", "note": "[Example 3-29, (R)-N-(5-((3-((2,6-dimethylpyrimidin-4-yl)methyl)pyrrolidin-1-yl)methyl)-4-fluorothiazol-2-yl)acetamide]", "IC50": 10},
      {"smiles": "CC(=O)Nc1nc(F)c(CN2CC[C@H](Cc3cc(C)ncc3Cl)C2)s1", "note": "[Example 3-30, (S)—N-(5-((3-((5-chloro-2-methylpyridin-4-yl)methyl)pyrrolidin-1-yl)methyl)-4-fluorothiazol-2-yl)acetamide]", "IC50": 5.1},
      {"smiles": "COc1cc(C[C@H]2CCN(Cc3sc(NC(C)=O)nc3F)C2)ncn1", "note": "[Example 3-31, (R)-N-(4-fluoro-5-((3-((6-methoxypyrimidin-4-yl)methyl)pyrrolidin-1-yl)methyl)thiazol-2-yl)acetamide]", "IC50": 14},
      {"smiles": "COc1cc(C[C@H]2CCN(Cc3sc(NC(C)=O)nc3F)C2)ccn1", "note": "[Example 3-32, (S)—N-(4-fluoro-5-((3-((2-methoxypyridin-4-yl)methyl)pyrrolidin-1-yl)methyl)thiazol-2-yl)acetamide]", "IC50": 8.9},
      {"smiles": "CC(=O)Nc1nc(F)c(CN2CC[C@H](Cc3ccnc(C)c3)C2)s1", "note": "[Example 3-33, (S)—N-(4-fluoro-5-((3-((2-methylpyridin-4-yl)methyl)pyrrolidin-1-yl)methyl)thiazol-2-yl)acetamide]", "IC50": 4.8},
      {"smiles": "COc1cc(C[C@@H]2CCN(Cc3sc(NC(C)=O)nc3F)C2)ncn1", "note": "[Example 3-34, (S)—N-(4-fluoro-5-((3-((6-methoxypyrimidin-4-yl)methyl)pyrrolidin-1-yl)methyl)thiazol-2-yl)acetamide]", "IC50": 8},
      {"smiles": "CC(=O)Nc1nc(F)c(CN2CC[C@@H](Cc3ncc(F)cn3)C2)s1", "note": "[Example 3-36, (S)—N-(4-fluoro-5-((3-((5-fluoropyrimidin-2-yl)methyl)pyrrolidin-1-yl)methyl)thiazol-2-yl)acetamide]", "IC50": 77},
      {"smiles": "CC(=O)N(C)c1nc(F)c(CN2CC[C@H](Cc3ncc(F)cn3)C2)s1", "note": "[Example 3-37, (R)-N-(4-fluoro-5-((3-((5-fluoropyrimidin-2-yl)methyl)pyrrolidin-1-yl)methyl)thiazol-2-yl)-N-methylacetamide]", "IC50": 79},
      {"smiles": "CC(=O)Nc1nc(Cl)c(CN2CC[C@H](Cc3cc(C)nc(C)c3)C2)s1", "note": "[Example 3-38, (S)—N-(4-chloro-5-((3-((2,6-dimethylpyridin-4-yl)methyl)pyrrolidin-1-yl)methyl)thiazol-2-yl)acetamide]", "IC50": 150},
      {"smiles": "CC(=O)Nc1nc(F)c(CN2C[C@H](Cc3ncc(F)cn3)C[C@H]2C)s1", "note": "[Example 3-39, N-(4-fluoro-5-(((2R,4S)-4-((5-fluoropyrimidin-2-yl)methyl)-2-methylpyrrolidin-1-yl)methyl)thiazol-2-yl)acetamide]", "IC50": 310},
      {"smiles": "CC(=O)Nc1nc(F)c(CN2C[C@H](Cc3ncc(F)cn3)C[C@@H]2C)s1", "note": "[Example 3-40, N-(4-fluoro-5-(((2S,4S)-4-((5-fluoropyrimidin-2-yl)methyl)-2-methylpyrrolidin-1-yl)methyl)thiazol-2-yl)acetamide]", "IC50": 150},
      {"smiles": "CC(=O)Nc1nc(F)c(CN2C[C@@H](Cc3ncc(F)cn3)C[C@@H]2C)s1", "note": "[Example 3-41, N-(4-fluoro-5-(((2S,4R)-4-((5-fluoropyrimidin-2-yl)methyl)-2-methylpyrrolidin-1-yl)methyl)thiazol-2-yl)acetamide]", "IC50": "< 1"},
      {"smiles": "CC(=O)Nc1nc(F)c(CN2C[C@@H](Cc3ncc(F)cn3)C[C@H]2C)s1", "note": "[Example 3-42, N-(4-fluoro-5-(((2R,4R)-4-((5-fluoropyrimidin-2-yl)methyl)-2-methylpyrrolidin-1-yl)methyl)thiazol-2-yl)acetamide]", "IC50": "< 1"},
      {"smiles": "COc1cc(C[C@@H]2C[C@@H](C)N(Cc3sc(NC(C)=O)nc3F)C2)ncn1", "note": "[Example 3-43, N-(4-fluoro-5-(((2R,4S)-4-((6-methoxypyrimidin-4-yl)methyl)-2-methylpyrrolidin-1-yl)methyl)thiazol-2-yl)acetamide]", "IC50": 87},
      {"smiles": "COc1cc(C[C@@H]2C[C@H](C)N(Cc3sc(NC(C)=O)nc3F)C2)ncn1", "note": "[Example 3-44, N-(4-fluoro-5-(((2S,4S)-4-((6-methoxypyrimidin-4-yl)methyl)-2-methylpyrrolidin-1-yl)methyl)thiazol-2-yl)acetamide]", "IC50": "< 1"},
      {"smiles": "COc1cc(C[C@H]2C[C@@H](C)N(Cc3sc(NC(C)=O)nc3F)C2)ncn1", "note": "[Example 3-45, N-(4-fluoro-5-(((2R,4R)-4-((6-methoxypyrimidin-4-yl)methyl)-2-methylpyrrolidin-1-yl)methyl)thiazol-2-yl)acetamide]", "IC50": 4.4},
      {"smiles": "COc1cc(C[C@H]2C[C@H](C)N(Cc3sc(NC(C)=O)nc3F)C2)ncn1", "note": "[Example 3-46, N-(4-fluoro-5-(((2S,4R)-4-((6-methoxypyrimidin-4-yl)methyl)-2-methylpyrrolidin-1-yl)methyl)thiazol-2-yl)acetamide]", "IC50": "< 1"},
      {"smiles": "CC(=O)Nc1nnc(CN2CC[C@H](Cc3cc(C)nc(C)c3)C2)s1", "note": "[Example 3-47, (S)—N-(5-((3-((2,6-dimethylpyridin-4-yl)methyl)pyrrolidin-1-yl)methyl)-1,3,4-thiadiazol-2-yl)acetamide]", "IC50": 130},
      {"smiles": "CC(=O)Nc1nc(F)c(CN2CCC[C@H](Cc3ncc(F)cn3)C2)s1", "note": "[Example 3-48, (R)-N-(4-fluoro-5-((3-((5-fluoropyrimidin-2-yl)methyl)piperidin-1-yl)methyl)thiazol-2-yl)acetamide]", "IC50": "< 1"},
      {"smiles": "CCC(=O)Nc1nc(F)c(CN2CCC[C@H](Cc3cc(OC)ncn3)C2)s1", "note": "[Example 3-49, (R)-N-(4-fluoro-5-((3-((6-methoxypyrimidin-4-yl)methyl)piperidin-1-yl)methyl)thiazol-2-yl)propionamide]", "IC50": 2.2},
      {"smiles": "CC(=O)Nc1ncc(CN2CCCC(Cn3cc(F)cn3)C2)s1", "note": "(stereo not shown) [Example 4-1, N-(5-((3-((4-fluoro-1H-pyrazol-1-yl)methyl)piperidin-1-yl)methyl)thiazol-2-yl)acetamide]", "IC50": 500},
      {"smiles": "CCc1cnn(CC2CCCN(Cc3cnc(NC(C)=O)s3)C2)c1", "note": "(stereo not shown) [Example 4-2, N-(5-((3-((4-ethyl-1H-pyrazol-1-yl)methyl)piperidin-1-yl)methyl)thiazol-2-yl)acetamide]", "IC50": 970},
      {"smiles": "CC(=O)Nc1ncc(CN2CCCC(Cn3cc(C(F)(F)F)cn3)C2)s1", "note": "(stereo not shown) [Example 4-3, N-(5-((3-((4-(trifluoromethyl)-1H-pyrazol-1-yl)methyl)piperidin-1-yl)methyl)thiazol-2-yl)acetamide]", "IC50": 960},
      {"smiles": "CC(=O)Nc1ncc(CN2CCCC(Cn3nc(C)c(C)c3C)C2)s1", "note": "(stereo not shown) [Example 4-4, N-(5-((3-((3,4,5-trimethyl-1H-pyrazol-1-yl)methyl)piperidin-1-yl)methyl)thiazol-2-yl)acetamide]", "IC50": 680},
      {"smiles": "CC(=O)Nc1ncc(CN2CCCC(Cn3cc(C4CCC4)cn3)C2)s1", "note": "(stereo not shown) [Example 4-5, N-(5-((3-((4-cyclobutyl-1H-pyrazol-1-yl)methyl)piperidin-1-yl)methyl)thiazol-2-yl)acetamide]", "IC50": 660},
      {"smiles": "CC(=O)Nc1ncc(CN2CCCC(Cn3cc(C4CC4)cn3)C2)s1", "note": "(stereo not shown) [Example 4-6, N-(5-((3-((4-cyclopropyl-1H-pyrazol-1-yl)methyl)piperidin-1-yl)methyl)thiazol-2-yl)acetamide]", "IC50": 540},
      {"smiles": "CC(=O)Nc1ncc(CN2CCCC(Cn3cc(C(C)C)cn3)C2)s1", "note": "(stereo not shown) [Example 4-7, N-(5-((3-((4-isopropyl-1H-pyrazol-1-yl)methyl)piperidin-1-yl)methyl)thiazol-2-yl)acetamide]", "IC50": 380},
      {"smiles": "COc1cnn(CC2CCCN(Cc3cnc(NC(C)=O)s3)C2)c1", "note": "(stereo not shown) [Example 4-8, N-(5-((3-((4-methoxy-1H-pyrazol-1-yl)methyl)piperidin-1-yl)methyl)thiazol-2-yl)acetamide]", "IC50": 360},
      {"smiles": "CC(=O)Nc1ncc(CN2CCCC(Cn3cc(Br)cn3)C2)s1", "note": "(stereo not shown) [Example 4-9, N-(5-((3-((4-bromo-1H-pyrazol-1-yl)methyl)piperidin-1-yl)methyl)thiazol-2-yl)acetamide]", "IC50": 310},
      {"smiles": "CC(=O)Nc1ncc(CN2CCCC(Cn3cc(C)cn3)C2)s1", "note": "(stereo not shown) [Example 4-10, N-(5-((3-((4-methyl-1H-pyrazol-1-yl)methyl)piperidin-1-yl)methyl)thiazol-2-yl)acetamide]", "IC50": 230}
    ]}
  ]
}
